The values below are quoted from earlier work in US12256762B2, “Sweetener composition and methods of making it” (eBIO Nutritional Sciences LLC, priority 2017, dated 2025).

The conditions of this data set: published partition coefficients.
With `CCCCCCCC/C=C\CCCCCCCC(=O)O` [Oleic C18:1], the “Partition Coefficient (log P)” value is recorded as 7.68. In the case of `C=C1C[C@@]23CC[C@H]4[C@@](C)(CCC[C@@]4(C)C(=O)O)[C@@H]2CC[C@]1(O)C3` [Steviol, reference compound], the “Partition Coefficient (log P)” value is recorded as 3.18. For the compound `CCCCCCCCCCCCCCCC(=O)O` [Palmitic C16:0], the “Partition Coefficient (log P)” value is listed as 7.23. For `CCCCCCCCCCCCCCCCCC(=O)O` [Stearic C18:0], the “Partition Coefficient (log P)” value is listed as 8.02. For the compound `CC/C=C\C/C=C\C/C=C\CCCCCCCC(=O)O` [Alpha-Linolenic C18:3], the “Partition Coefficient (log P)” value was 6.59.

For `CCCCC/C=C\C/C=C\CCCCCCCC(=O)O` [Linoleic C18:2], the “Partition Coefficient (log P)” value is 7.06.

Cucurbitacin [reference compound]: the “Partition Coefficient (log P)” value is listed as 3.19.
